# Counter-ions that a name gives are not always drawn. Like-named read-outs stand apart in the source and are kept apart here.
# Columns and labels:
# Assay type in all cases: in vivo
# Phytophthora infestans = assay: whole plant or invertebrate; settings: tomatoes, 3 days after inoculation; for pest or weed control at 12.5 ppm: read-out: Efficacy in % found, Table 2
# Botrytis cinerea = assay: Botrytis test (beans)/protective; settings: 48 h, 2 days after inoculation, read-out: Efficacy in % found; for pest or weed control at 10 ppm: Table 9, 10 ppm a.i.; for pest or weed control at 5 ppm: Table 9, 5 ppm a.i.
# Description: Botrytis Test (Beans)/Protective
# (§1) Solvent: • 24,5 parts by weight of acetone • 24,5 parts by weight of dimethylacetamide
# (§2) Emulsifier: • 1 part by weight of alkylaryl polyglycol ether
# (§3) To produce a suitable preparation of active compound, 1 part by weight of active compound is mixed with the stated amounts of solvent and emulsifier, and the concentrate is diluted with water to the desired concentration.
# To test for protective activity, young plants are sprayed with the preparation of active compound. After the spray coating has dried on, 2 small pieces of agar covered with growth of Botrytis cinerea are placed on each leaf. The inoculated plants are placed in a darkened chamber at 20° C. and a relative atmospheric humidity of 100%.
# 2 days after the inoculation, the size of the lesions on the leaves is evaluated. 0% means an efficacy which corresponds to that of the control, while an efficacy of 100% means that no disease is observed.
# Sphaerotheca fuliginea = assay: Sphaerotheca test (cucumbers)/protective; settings: 7 days after inoculation
# Description: Sphaerotheca Test (Cucumbers)/Protective
# as §1, §2, §3
# To test for protect activity, young plants are sprayed with the preparation of active compound at the stated rate of application. After the spray coating has dried on, the plants are inoculated with to an aqueous spore suspension of Sphaerotheca fuliginea. The plants are then placed in a greenhouse at approximately 23° C. and a relative atmospheric humidity of approximately 70%.
# The test is evaluated 7 days after the inoculation. 0% means an efficacy which corresponds to that of the control, while an efficacy of 100% means that no disease is observed.
# Pythium ultimum = assay: Pythium test (cotton)/seed treatment; settings: emerged seedlings after 7 days
# Description: Pythium Test (Cotton)/Seed Treatment
# The test is performed under greenhouse conditions.
# Cotton seeds, treated with the active compound or compound combinations, solved in N-methyl-2-pyrrolidon and diluted with water to the desired dosages, were sown in 6*6 cm pots containing 4 cm of a 1:1 mix of steamed field soil and sand.
# Perlite was incubated with mycelium fragments of Pythium ultimum. 1 ml of infected perlite was scattered between the treated cotton seeds. Seeds were then covered by light expanded clay aggregate. Pots were incubated in the greenhouse 7 days at 20° C. and 80% relative humidity.
# Assessment consisted of counting of emerged seedlings. 0% means an efficacy which to corresponds to that of the control, while an efficacy of 100% means that all seedlings have emerged.
# [1] = Podosphaera fuliginea, 168 h, Table 7, 1 ppm a.i., read-out: Efficacy in % found
# [2] = Phytophthora infestans, 72 h, read-out: Efficacy in % found, Table 1, 0.4 ppm a.i.
# [3] = Phytophthora infestans, 72 h, read-out: Efficacy in % found, Table 1, 40 ppm a.i.
# [4] = Phytophthora infestans, 72 h, 12.5 ppm a.i.
compound,measurement,setting,value
CCO[PH](=O)O [fosetyl-Al],Efficacy in % found,"Phytophthora infestans; Table 2, 12.5 ppm a.i.",0%
CC(C)NC(=O)N1CC(=O)N(c2cc(Cl)cc(Cl)c2)C1=O [iprodione],pest or weed control at 50 ppm,"Botrytis cinerea; Table 9, 50 ppm a.i.",70%
CCCC1COC(Cn2cncn2)(c2ccc(Cl)cc2Cl)O1 (centres unmarked) [propiconazole],pest or weed control at 1 ppm,Sphaerotheca fuliginea; [1],13%
COc1ccc(C(=CC(=O)N2CCOCC2)c2ccc(Cl)cc2)cc1OC [dimethomorph],pest or weed control at 0.4 ppm,Phytophthora infestans; [2],41%
O=[N+]([O-])c1cc(C(F)(F)F)c(Cl)c([N+](=O)[O-])c1Nc1ncc(C(F)(F)F)cc1Cl [fluazinam],pest or weed control at 2 ppm,"Phytophthora infestans; Phytophthora infestans, 72 h, read-out: Efficacy in % found, Table 1, 2 ppm a.i.",38%
OP(O)O [phosphorous acid],Efficacy in % found,"Phytophthora infestans; Table 2, 12.5 ppm a.i.",0%
CC(C)CC(C)c1sccc1NC(=O)c1cn(C)nc1C(F)(F)F (centres unmarked) [penthiopyrad],pest or weed control at 40 ppm,Phytophthora infestans; [3],31%
C[C@@]1(c2ccc(Oc3ccccc3)cc2)OC(=O)N(Nc2ccccc2)C1=O (racemic) [famoxadone],pest or weed control at 0.4 ppm,Phytophthora infestans; [2],23%
O=C(Nc1ccccc1-c1ccc(Cl)cc1)c1cccnc1Cl [boscalid],pest or weed control at 10 ppm,Botrytis cinerea,73%
same,pest or weed control at 40 ppm,Phytophthora infestans; [3],26%
O=C1c2ccccc2C(=O)N1SC(Cl)(Cl)Cl [folpet],pest or weed control at 50 ppm,"Botrytis cinerea; Table 10, 50 ppm a.i.",79%
O=C(NCc1ncc(C(F)(F)F)cc1Cl)c1c(Cl)cccc1Cl [fluopicolide],Efficacy in % found,"Phytophthora infestans; Table 1, 0.4 ppm a.i.",18%
same,Efficacy in % found,"Pythium ultimum; Table 11, 10 g a.i./dt",26%
CC(C)[C@H](NC(=O)O)C(=O)N[C@H](C)c1nc2ccc(F)cc2s1 [benthiavalicarb],Efficacy in % found,"Phytophthora infestans; Table 1, 0.1 ppm a.i.",48%
Cc1cc(C)nc(Nc2ccccc2)n1 [pyrimethanil],pest or weed control at 25 ppm,"Botrytis cinerea; Table 9, 25 ppm a.i.",30%
metiram,Efficacy in % found,"Phytophthora infestans; Table 4, 100 ppm a.i.",26%
"Cn1cc(C(=O)Nc2ccccc2-c2cc(F)c(F)c(F)c2)c(C(F)F)n1 [3-(difluoromethyl)-1-methyl-N-(3′,4′,5′-trifluorobiphenyl-2-yl)-1H-pyrazole-4-carboxamide]",pest or weed control at 5 ppm,Botrytis cinerea,65%
same,pest or weed control at 100 ppm,"Phytophthora infestans; Phytophthora infestans, 72 h, read-out: Efficacy in % found, Table 3, 100 ppm a.i.",35%
COC(=O)[C@@H](C)N(C(=O)Cc1ccccc1)c1c(C)cccc1C [benalaxyl-M],Efficacy in % found,"Phytophthora infestans; Table 5, 1 ppm a.i.",28%
same,Efficacy in % found,"Pythium ultimum; Table 11, 1 g a.i./dt",4%
O=c1c2cc(F)ccc2nc(-n2cncn2)n1-c1ccc(Cl)cc1Cl [fluquinconazole],pest or weed control at 0.5 ppm,"Sphaerotheca fuliginea; Podosphaera fuliginea, 168 h, Table 7, 0.5 ppm a.i., read-out: Efficacy in % found",63%
CON=C(C(=O)OC)c1ccccc1CON=C(C)c1cccc(C(F)(F)F)c1 [trifloxystrobin],pest or weed control at 2.5 ppm,"Sphaerotheca fuliginea; Podosphaera fuliginea, 168 h, Table 7, 2.5 ppm a.i., read-out: Efficacy in % found",58%
propineb,Efficacy in % found,"Phytophthora infestans; Table 2, 6.25 ppm a.i.",63%
CSC1=N[C@@](C)(c2ccccc2)C(=O)N1Nc1ccccc1 [fenamidone],pest or weed control at 0.4 ppm,Phytophthora infestans; [2],57%
same,Efficacy in % found,"Pythium ultimum; Table 11, 1 g a.i./dt",4%
Cc1nn(C)c(F)c1C(=O)Nc1ccccc1C(C)CC(C)C (centres unmarked) [penflufen],Efficacy in % found,"Phytophthora infestans; Table 1, 40 ppm a.i.",16%
"Cn1cc(C(=O)Nc2ccc(F)cc2-c2ccc(Cl)c(Cl)c2)c(C(F)F)n1 [bixafen, N-(3′,4′-dichloro-5-fluorobiphenyl-2-yl)-3-(difluoromethyl)-1-methyl-1H-pyrazole-4-carboxamide]",pest or weed control at 40 ppm,Phytophthora infestans; [3],18%
same,pest or weed control at 1 ppm,"Sphaerotheca fuliginea; Podosphaera fuliginea, 168 h, Table 8, 1 ppm a.i., read-out: Efficacy in % found",0%
mancozeb,Efficacy in % found,"Phytophthora infestans; Table 1, 20 ppm a.i.",33%
[Cu+2].[OH-].[OH-] [copper hydroxide],Efficacy in % found,"Phytophthora infestans; Table 2, 6.25 ppm a.i.",73%
CO/C=C(/C(=O)OC)c1ccccc1Oc1cc(Oc2ccccc2C#N)ncn1 [azoxystrobin],Efficacy in % found,"Phytophthora infestans; Table 1, 0.4 ppm a.i.",30%
same,Efficacy in % found,"Sphaerotheca fuliginea; Table 8, 1 ppm a.i.",30%
"O=C(NCCc1ncc(C(F)(F)F)cc1Cl)c1ccccc1C(F)(F)F [fluopyram, N-{2-[3-chloro-5-(trifluoromethyl)pyridin-2-yl]ethyl}-2-(trifluoromethyl)benzamide]",pest or weed control at 10 ppm,Botrytis cinerea,70%
same,pest or weed control at 25 ppm,"Phytophthora infestans; Phytophthora infestans, 72 h, read-out: Efficacy in % found, Table 3, 25 ppm a.i.",9%
CC(C)(C)C(O)C(Oc1ccc(Cl)cc1)n1cncn1 (centres unmarked) [triadimenol],pest or weed control at 1 ppm,Sphaerotheca fuliginea; [1],38%
N#Cc1c(Cl)c(Cl)c(Cl)c(C#N)c1Cl [chlorothalonil],pest or weed control at 12.5 ppm,Phytophthora infestans; [4],20%
"Cc1cc(C(F)(F)F)nn1CC(=O)N1CCC(c2nc(C(=O)N(C)[C@@H]3CCCc4ccccc43)cs2)CC1 [N-methyl-2-(1-{[5-methyl-3-(trifluoromethyl)-1H-pyrazol-1-yl]acetyl}piperidin-4-yl)-N-[(1R)-1,2,3,4-tetrahydronaphthalen-1-yl]-1,3-thiazole-4-carboxamide]",pest or weed control at 0.1 ppm,"Phytophthora infestans; Phytophthora infestans, 72 h, read-out: Efficacy in % found, Table 1, 0.1 ppm a.i.",48%
Cn1cc(C(=O)Nc2ccccc2C2CC2C2CC2)c(C(F)F)n1 (centres unmarked) [sedaxane],Efficacy in % found,"Phytophthora infestans; Table 1, 40 ppm a.i.",37%
Cc1ccc(C(C)NC(=O)[C@@H](NC(=O)OC(C)C)C(C)C)cc1 (some centres unmarked) [iprovalicarb],Efficacy in % found,"Phytophthora infestans; Table 1, 0.4 ppm a.i.",0%
CC(C)C1C2CCC1c1c(NC(=O)c3cn(C)nc3C(F)F)cccc12 (centres unmarked) [isopyrazam],Efficacy in % found,"Phytophthora infestans; Table 1, 40 ppm a.i.",20%
CCCOC(=O)NCCCN(C)C [propamocarb-HCl],pest or weed control at 12.5 ppm,Phytophthora infestans; [4],20%
CCC(C)(NC(=O)c1cc(Cl)c(C)c(Cl)c1)C(=O)CCl (centres unmarked) [zoxamide],pest or weed control at 0.4 ppm,Phytophthora infestans; [2],16%
C#CCOc1ccc(CCNC(=O)C(OCC#C)c2ccc(Cl)cc2)cc1OC (centres unmarked) [mandipropamid],Efficacy in % found,"Phytophthora infestans; Table 1, 0.4 ppm a.i.",84%
same,Efficacy in % found,"Pythium ultimum; Table 11, 10 g a.i./dt",0%
COC(=O)N(OC)c1ccccc1COc1ccn(-c2ccc(Cl)cc2)n1 [pyraclostrobin],pest or weed control at 0.4 ppm,Phytophthora infestans; [2],28%
CC(C)(C)C(O)(CCc1ccc(Cl)cc1)Cn1cncn1 (centres unmarked) [tebuconazole],pest or weed control at 2 ppm,"Sphaerotheca fuliginea; Podosphaera fuliginea, 168 h, Table 7, 2 ppm a.i., read-out: Efficacy in % found",13%
[Cl-].[Cu+2].[Cu+2].[OH-].[OH-].[OH-] [copper oxychloride],Efficacy in % found,"Phytophthora infestans; Table 2, 6.25 ppm a.i.",60%
CCNC(=O)NC(=O)/C(C#N)=N/OC [cymoxanil],pest or weed control at 1.25 ppm,"Phytophthora infestans; Phytophthora infestans, 72 h, read-out: Efficacy in % found, Table 6, 1.25 ppm a.i.",29%
Fc1ccc([C@]2(Cn3cncn3)O[C@H]2c2ccccc2Cl)cc1 (racemic) [epoxiconazole],pest or weed control at 1 ppm,Sphaerotheca fuliginea; [1],63%
CO/N=C(/C1=NOCCO1)c1ccccc1Oc1ncnc(Oc2ccccc2Cl)c1F [fluoxastrobin],pest or weed control at 0.4 ppm,Phytophthora infestans; [2],36%
CCCN(CCOc1c(Cl)cc(Cl)cc1Cl)C(=O)n1ccnc1 [prochloraz],pest or weed control at 100 ppm,"Phytophthora infestans; Phytophthora infestans, 72 h, read-out: Efficacy in % found, Table 4, 100 ppm a.i.",26%
Cc1ccc(-c2c(Cl)nc(C#N)n2S(=O)(=O)N(C)C)cc1 [cyazofamid],pest or weed control at 0.4 ppm,Phytophthora infestans; [2],49%
CCCCCCCCc1c(CC)nc2ncnn2c1N [ametoctradin],Efficacy in % found,"Phytophthora infestans; Table 1, 1 ppm a.i.",22%
CC1(C(=O)Nc2ccc(O)c(Cl)c2Cl)CCCCC1 [fenhexamid],pest or weed control at 5 ppm,Botrytis cinerea,81%
COCC(=O)N(c1c(C)cccc1C)[C@H](C)C(=O)OC [mefenoxam],Efficacy in % found,"Pythium ultimum; Table 11, 0.1 g a.i./dt",48%
OC(Cc1ccccc1Cl)(Cn1nc[nH]c1=S)C1(Cl)CC1 (centres unmarked) [prothioconazole],pest or weed control at 1 ppm,Sphaerotheca fuliginea; [1],50%

# From patent US20120027741A1 (priority 2009, published 2012)
